Experimental data from the supplement of paper PMC5908809.

Legend:
[1] = test system: normal NK cells expanded with K562-aAPC; experiment: percent inhibition of viability; higher = more inhibition; settings: 72 h, IL-2 2.5 ng/mL
Method: (§1)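 Drug sensitivity and resistance testing on K562-aAPC-expanded normal NK cells: 5 concentrations (10-fold steps over a 10,000-fold range), 72 h at 37 °C, viability by CellTiter-Glo normalised to DMSO and benzethonium chloride controls; DSS from the fitted curve.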

DERL-7 (IL-2 2.5 ng/mL) [2] = experiment: as above; settings: 72 h
IMC-1 (IL-2 20 ng/mL) [3] = experiment: as above; settings: 72 h
KAI3 (IL-2 2.5 ng/mL) [4] = experiment: as above; settings: 72 h
KHYG-1 (IL-2 2.5 ng/mL) [5] = experiment: as above; settings: 72 h
NK-92 (IL-2 2.5 ng/mL) [6] = experiment: as above; settings: 72 h
NK-YS (IL-2 2.5 ng/mL) [7] = experiment: as above; settings: 72 h
NKL (IL-2 2.5 ng/mL) [8] = experiment: as above; settings: 72 h
SNK-6 (IL-2 2.5 ng/mL) [9] = experiment: as above; settings: 72 h
YT (IL-2 2.5 ng/mL) [10] = experiment: as above; settings: 72 h
[11] = test system: normal primary NK cells, pool 1 (3 donors) (IL-2 2.5 ng/mL); experiment: as above; settings: 72 h
[12] = test system: normal primary NK cells, pool 1 (3 donors), resting (IL-2 0 ng/mL); experiment: as above; settings: 72 h
[13] = test system: normal primary NK cells, pool 2 (3 donors) (IL-2 2.5 ng/mL); experiment: as above; settings: 72 h
[14] = test system: normal primary NK cells, pool 3 (3 donors) (IL-2 2.5 ng/mL); experiment: as above; settings: 72 h
[15] = test system: normal NK cells expanded with K562-aAPC; experiment: drug sensitivity score (DSS) (DSS units); higher = more sensitive; extreme values may be limits of the assay; settings: 72 h; IL-2 2.5 ng/mL
Method: as §1

DERL-7 (IL-2 2.5 ng/mL) [16] = experiment: as above; settings: 72 h
IMC-1 (IL-2 20 ng/mL) [17] = experiment: as above; settings: 72 h
KAI3 (IL-2 2.5 ng/mL) [18] = experiment: as above; settings: 72 h
KHYG-1 (IL-2 2.5 ng/mL) [19] = experiment: as above; settings: 72 h
NK-92 (IL-2 2.5 ng/mL) [20] = experiment: as above; settings: 72 h
NK-YS (IL-2 2.5 ng/mL) [21] = experiment: as above; settings: 72 h
NKL (IL-2 2.5 ng/mL) [22] = experiment: as above; settings: 72 h
SNK-6 (IL-2 2.5 ng/mL) [23] = experiment: as above; settings: 72 h
YT (IL-2 2.5 ng/mL) [24] = experiment: as above; settings: 72 h
[25] = test system: normal primary NK cells, pool 1 (3 donors) (IL-2 2.5 ng/mL); experiment: as above; settings: 72 h
[26] = test system: normal primary NK cells, pool 1 (3 donors), resting (IL-2 0 ng/mL); experiment: as above; settings: 72 h
[27] = test system: normal primary NK cells, pool 2 (3 donors) (IL-2 2.5 ng/mL); experiment: as above; settings: 72 h
[28] = test system: normal primary NK cells, pool 3 (3 donors) (IL-2 2.5 ng/mL); experiment: as above; settings: 72 h

O=C(Nc1cccnc1)N1CCC(Cc2cccc(Oc3ccc(C(F)(F)F)cn3)c2)CC1 [PF-3845] (max concentration tested 10000 nM)
percent inhibition of viability [%]
Settings	1 nM	10 nM	100 nM	1000 nM	10000 nM
DERL-7 (IL-2 2.5 ng/mL) [2]	3.63	-4.44	5.89	0.51	46.1
IMC-1 (IL-2 20 ng/mL) [3]	0.9	-0.47	4.7	13.8	26.2
KAI3 (IL-2 2.5 ng/mL) [4]	-1.12	-6.82	4.46	0.3	25
KHYG-1 (IL-2 2.5 ng/mL) [5]	-4.25	-6.89	-4.44	4.55	60.7
NK-92 (IL-2 2.5 ng/mL) [6]	-1.76	-21.3	-8.96	4.25	35.6
NK-YS (IL-2 2.5 ng/mL) [7]	4.37	-3.27	0.47	10.5	75
NKL (IL-2 2.5 ng/mL) [8]	-5.58	-15.9	-8.48	16.5	66.2
SNK-6 (IL-2 2.5 ng/mL) [9]	-10	-1.35	-9.77	-1.56	25.3
YT (IL-2 2.5 ng/mL) [10]	-2.27	-9.8	1.6	5.87	44.7
[1]	-4.39	-6.94	-8.54	-9.15	-10
[11]	-3.8	-8.73	-11.2	2.66	64.3
[12]	-8.45	-13.6	-17.7	-4.4	74
[13]	-12.4	3.71	-1.82	-3.09	43.9
[14]	-11.4	-5.5	-11.2	-10.4	19.9

Settings	drug sensitivity score
DERL-7 (IL-2 2.5 ng/mL) [16]	2.45
IMC-1 (IL-2 20 ng/mL) [17]	2.22
KAI3 (IL-2 2.5 ng/mL) [18]	0.99
KHYG-1 (IL-2 2.5 ng/mL) [19]	4
NK-92 (IL-2 2.5 ng/mL) [20]	2.38
NK-YS (IL-2 2.5 ng/mL) [21]	5.91
NKL (IL-2 2.5 ng/mL) [22]	6.2
SNK-6 (IL-2 2.5 ng/mL) [23]	0.86
YT (IL-2 2.5 ng/mL) [24]	3.29
[15]	0
[25]	3.87
[26]	3.74
[27]	2
[28]	0.32
